Results as given in paper PMC5759193, “The tankyrase inhibitor G007-LK inhibits small intestine LGR5^+ stem cell proliferation without altering tissue morphology” (Biological Research, 2018).
Where “and” joins values, the source holds several entries; their conditions need not be identical. Identical values can stand only once. Like-named read-outs stand apart in the source and are kept apart here.

Assays:
[1] = system: duodenum; test: Duodenal morphology and cellular composition (H&E, PAS, Alcian blue, Lysozyme, Chromogranin A); type: in vivo, mice
Description: (§1) Mouse tissue was fixed overnight in 4% PFA, routinely processed and paraffin embedded. The paraffin-embedded tissue was sectioned at 3–4.5 μm. IHC staining was performed as previously described, with primary antibodies against β-catenin, green fluorescent protein (GFP), Lysozyme and Chromogranin A (rabbit monoclonal anti-β-catenin, Abcam ab32572; rabbit monoclonal anti-GFP, Cell Signaling Technology #2956; rabbit monoclonal anti-Lysozyme, Abcam ab108508; rabbit polyclonal anti-Chromogranin A, Abcam ab15160). For quantitative analyses of the IHC-stained tissue sections, the slides were scanned using the Hamamatsu Digital Slide Scanner NanoZoomer 2.0-HT C9600-13 and the number of positive and negative cells in up to 10 crypts or villi from each animal was counted manually. Periodic acid-Schiff (PAS) and Alcian blue staining was performed at the Department of Pathology, Oslo University Hospital, using standard protocols.
Similar data for the goblet cells were obtained by Alcian blue staining of acidic mucin (Additional file 5: Figure S4A–C).

[2] = cited from earlier work
[3] = Tolerance: body mass, food consumption, clinical observations
Description: Medicilon Preclinical Research (Shanghai) LCC performed the pharmacokinetic studies; in brief, ICR mice (n = 25) from Sion-British SIPPR/BK Lab Animal Ltd, Shanghai were fed 100 mg G007-LK/kg chow enriched diet ad libitum for 3 consecutive days, body mass and food consumption was measured daily.
The body mass of the G007-LK-treated mice and the amount of consumed chow was measured 5 days per week. […] The mice were treated with G007-LK for 9 days by oral gavage or 21 days with the enriched diet.
The tolerance of G007-LK treatment in the experimental mice used in this study was further evaluated by short-term oral gavage treatment daily for 9 days with 10 or 50 mg G007-LK/kg body mass (Fig. 1d). […] For long-term treatment, mice were fed G007-LK-enriched diets, 100 or 1000 mg G007-LK/kg chow for up to 3 weeks (Fig. 1f).

[4] = Pharmacokinetic analysis in plasma after G007-LK enriched chow; type: in vivo, ICR mice; conditions: for G007-LK Concentration in plasma, Mean: n=5; for Cmax: 0 h
Description: To address the pharmacokinetic properties of the tankyrase inhibitor G007-LK, ICR mice (n = 25) were treated for 3 days with a G007-LK-enriched diet, containing 100 mg G007-LK/kg chow. […] Pharmacokinetic parameters of G007-LK following administration of enriched diet for three consecutive days are listed in Table 1.

[5] = system: LGR5^+ intestinal stem cells; test: Lineage tracing from LGR5^+ intestinal stem cells in duodenum (confocal microscopy, GFP IHC)
Description: Pieces of duodenum from mice that had undergone induced lineage tracing were fixed for 30 min in 4% paraformaldehyde (PFA) at room temperature, rinsed in PBS and immediately prepared for confocal microscopic analyses. Under a stereo microscope one row of intestinal villi was sectioned from the duodenal wall with a scalpel, rinsed in dH2O and embedded in Mowiol 4-88 (Sigma-Aldrich). The samples were examined with a Zeiss LSM 780 confocal microscope (Carl Zeiss MicroImaging GmbH) equipped with a multiline argon laser (458/488/514 nm), a 10 mW DPSS laser (561 nm), a 405-30 CW laser diode (405 nm), and a helium–neon (HeNe) laser (633 nm). The objective used was a Zeiss Plan-Apochromat 20×/0.8 DIC II. To calculate the numbers and volumes of the traced cells, confocal Z-stacks were analysed with Imaris 7.7.2 (Bitplane AG). A similar threshold for the segmentation of the traced cells was used in all Z-stacks examined. Image visualisations were performed with the basic Zeiss LSM 780 ZEN 2010 software, Photoshop CS4 (Adobe), and Imaris 7.7.2.
as §1

[6] = system: canonical WNT signalling; test: β-catenin IHC of duodenal crypt base cells; type: in vivo, mice; conditions: gavage 10 mg/kg n = 2 and 50 mg/kg n = 1
Description: as §1
To verify that the administered doses of the tankyrase inhibitor had the expected effect on canonical WNT signalling, we stained duodenal tissue sections with a β-catenin-specific antibody. Nuclear localisation of β-catenin implied active canonical WNT signalling in vehicle (n = 3), (Fig. 4a) and G007-LK-treated (gavage 10 mg/kg, n = 2 and 50 mg/kg, n = 1) mice (Fig. 4b).

[7] = system: duodenal crypt cells; test: BrdU labelling of duodenal crypt cells; type: in vivo, mice; conditions: 100 mg/kg chow
Description: Slides with tissue sections were deparaffinised in xylene and re-hydrated through a graded series of ethanol. Heat-antigen retrieval was performed in 10 mM sodium-citrate buffer supplemented with 0.05% Tween 20 in a pressure cooker for 3 min and the slides were slowly cooled down. Slides were rinsed in washing buffer (PBS supplemented with 0.1% Tween), incubated with blocking buffer (PBS supplemented with 5% goat serum and 5% bovine serum albumin (BSA)) for 30 min at room temperature and rinsed in washing buffer. Primary antibodies (mouse monoclonal anti-BrdU, ThermoFisher #B35128; monoclonal anti-GFP, Cell Signalling #2956) diluted in blocking buffer were applied and incubated over night at 4 °C. […]
Mice were treated with BrdU (100 mg/kg body mass) 1 h before being sacrificed or with daily 1 mg BrdU injections for 7 days prior to sacrifice. […] BrdU-labelled cells were detected using a BrdU IHC kit (Abcam #125306) according to the manufacturer’s protocol, or using a monoclonal anti-BrdU antibody (ThermoFisher #B35128) and a Mouse-on-Mouse kit (Vector Laboratories #BMK-2202) according to the IHC protocol outlined above. The fraction of BrdU-labelled crypt cells was calculated.

[8] = 6 months, 158 mg/kg chow, high fat-based diet
[9] = ICR mice, 100 mg G007-LK/kg chow, 3 days
[10] = ICR mice, female, diet containing G007-LK 100 mg/kg chow 3 days, plasma

Compound: CS(=O)(=O)c1ccc(-c2nnc(/C=C/c3nnc(-c4ccc(C#N)cc4)o3)n2-c2ccccc2Cl)nc1 [G007-LK]
- gross morphology of the duodenum (crypts and villi), H&E ([1]; 9 days gavage 10 or 50 mg/kg, 21 days enriched diet 100 or 1000 mg/kg chow): maintained
- crypt abscesses ([1]; distal duodenum and ileum): occasional crypt abscesses were observed
- morphology of epithelial cell layer ([1]; distal duodenum and ileum): did not induce major morphological changes
- distribution of Paneth cells in crypt base (Lysozyme IHC) vs control ([1]; duodenum): equal distribution pattern
- distribution of enteroendocrine cells (Chromogranin A IHC) vs control ([1]; duodenum): comparable distribution patterns
- number of PAS stained goblet cells vs vehicle ([1]; duodenum, gavage 50 mg/kg): no significant difference
- crypt:villus ratios, crypt duplication rates or size, goblet cell number or size, crypts per villus base ([1]; proximal duodenum, gavage treated vs control): no statistically significant (t test, p > 0.05) changes
- glucose metabolism [2, 8]: improved glucose tolerance and insulin sensitivity
- toxic effects [2, 8]: did not lead to visible toxic effects
- small intestine toxicity ([2]; intermediate and high doses, up to 100 mg/kg body mass once daily 14–20 days, i.p. or orally): partially reversible focal necrosis and inflammation in the small intestine
- changes in body mass [3, 9]: minor, not statistically significant
- food consumption [3, 9]: stable day 2 and 3 of the G007-LK enriched chow administration period, but statistically significant lower (t test, p < 0.05) the first day
- macroscopic phenotypes [3, 9]: No obvious macroscopic abnormal phenotypes were observed
- tolerability ([3]; daily doses up to approximately 200 mg/kg body mass, gavage or enriched diet): well tolerated
- G007-LK Concentration in plasma, single animals G1-1 to G1-5 ([4]; 0 h after diet removal): 773,96 ng/mL and 795,28 ng/mL and 756,04 ng/mL and 696,04 ng/mL and 791,2 ng/mL
- G007-LK Concentration in plasma, Mean ([4]; 0 h after diet removal): 762,5 ng/mL
- G007-LK Concentration in plasma, single animals G1-1 to G1-5 ([4]; 1 h after diet removal): 676,41 ng/mL and 696,8 ng/mL and 608,34 ng/mL and 669,24 ng/mL and 689,94 ng/mL
- G007-LK Concentration in plasma, Mean ([4]; 1 h after diet removal): 668,15 ng/mL
- G007-LK Concentration in plasma, single animals G1-1 to G1-5 ([4]; 2 h after diet removal): 639,46 ng/mL and 649,54 ng/mL and 610,19 ng/mL and 589,18 ng/mL and 567,65 ng/mL
- G007-LK Concentration in plasma, Mean ([4]; 2 h after diet removal): 611,2 ng/mL
- G007-LK Concentration in plasma, single animals G1-1 to G1-5 ([4]; 4 h after diet removal): 335,27 ng/mL and 378,3 ng/mL and 216,65 ng/mL and 474,86 ng/mL and 316,33 ng/mL
- G007-LK Concentration in plasma, Mean ([4]; 4 h after diet removal): 344,28 ng/mL
- G007-LK Concentration in plasma, single animals G1-1 to G1-5 ([4]; 12 h after diet removal): 52,75 ng/mL and 105,7 ng/mL and 112,65 ng/mL and 158,02 ng/mL and 111,12 ng/mL
- G007-LK Concentration in plasma, Mean ([4]; 12 h after diet removal): 108,05 ng/mL
- Cmax ([4]; ICR mice, diet containing G007-LK 100 mg/kg chow 3 days, plasma, read-out: Cmax): 1440 ± 80 nM
- AUC(0-t) [4, 10]: 4119.80 ng·h/mL
- AUC(0-∞) [4, 10]: 4770.32 ng·h/mL
- Cmax [4, 10]: 762.50 ng/mL
- t1/2 ([4]; ICR mice, female, diet containing G007-LK 100 mg/kg chow ad libitum 3 days, plasma, non-compartmental): 4.17 h
- F^a bioavailability ([4]; enriched chow vs IV data of ref 26, calculated from AUC(0-t)): 22.22%
- F^b bioavailability ([4]; enriched chow vs IV data of ref 26, calculated from AUC(0-∞)): 20.69%
- lineage tracing after stop of treatment (G007-LK-stop, reversibility) ([5]; 100 mg/kg chow 2 weeks, G007-LK-free diet 2 days before tamoxifen, tracing 7 days): presence of lineage traced cells throughout the entire length of the villi
- average ratio of crypts with GFP positive cells versus total counted crypts ([5]; GFP IHC, G007-LK treated mice n = 10 (control 0.51)): 0.39
- reduction of ratio of crypts with GFP positive cells versus total counted crypts, compared with control ([5]; GFP IHC, n = 10 treated, p = 0.05): 23%
- location of lineage traced cells when treatment starts after tamoxifen ([5]; Lgr5-EGFP-CreERT2;R26R-tdTomato mice, 100 mg/kg chow 6 days, started 24–36 h after tamoxifen): lineage traced cells were detected in the middle of the duodenal villi
- number of villi with traced cells vs control ([5]; duodenum): significantly (t test, p < 0.05) reduced
- number of lineage traced cells vs control ([5]; image analysis, duodenum): significant (t test, p < 0.05) reduction
- volume of lineage traced cells vs control ([5]; image analysis, duodenum): significant (t test, p < 0.05) reduction
- lineage tracing from LGR5^+ stem cells ([5]; long-term, 100 mg/kg chow, duodenum): markedly reduced lineage tracing
- fraction of β-catenin-positive nuclei in crypt base cells vs control [6]: significant (t test, p < 0.05) reduction
- BrdU-labelled cells after daily BrdU for 7 days ([7]; n = 3): BrdU-labelled cells were observed at the tips of the villi
- ratio of BrdU positive crypt cells ([7]; n = 7, BrdU 1 h (control 0.28), p < 0.05): 0.14
